Test results published in patent US20020183362A1, “2-Fluorobenzenesulfonyl compounds for the treatment of inflammation” (Pharmacia Corporation, priority 2000, published 2002).
Structures can show the parent of a compound that is named as a salt.

Legend:
[1] = molecular target: T1, Human COX-1 (Homo sapiens, UniProt P23219); assay: Assay for COX-1 and COX-2 activity (PGE2 ELISA, recombinant enzyme), COX-1; type: biochemical; conditions: Table I; pre-incubated 10-20 minutes, arachidonic acid 10 μM, stopped after ten minutes, pH 8.0
T1 construct: A 2.0 kb fragment containing the coding region of either human or murine COX-1 or human or murine COX-2; made in house; host or cells: SF9 insect cells (baculovirus, transfer vector pVL1393)
T1 sequence (P23219 24-599): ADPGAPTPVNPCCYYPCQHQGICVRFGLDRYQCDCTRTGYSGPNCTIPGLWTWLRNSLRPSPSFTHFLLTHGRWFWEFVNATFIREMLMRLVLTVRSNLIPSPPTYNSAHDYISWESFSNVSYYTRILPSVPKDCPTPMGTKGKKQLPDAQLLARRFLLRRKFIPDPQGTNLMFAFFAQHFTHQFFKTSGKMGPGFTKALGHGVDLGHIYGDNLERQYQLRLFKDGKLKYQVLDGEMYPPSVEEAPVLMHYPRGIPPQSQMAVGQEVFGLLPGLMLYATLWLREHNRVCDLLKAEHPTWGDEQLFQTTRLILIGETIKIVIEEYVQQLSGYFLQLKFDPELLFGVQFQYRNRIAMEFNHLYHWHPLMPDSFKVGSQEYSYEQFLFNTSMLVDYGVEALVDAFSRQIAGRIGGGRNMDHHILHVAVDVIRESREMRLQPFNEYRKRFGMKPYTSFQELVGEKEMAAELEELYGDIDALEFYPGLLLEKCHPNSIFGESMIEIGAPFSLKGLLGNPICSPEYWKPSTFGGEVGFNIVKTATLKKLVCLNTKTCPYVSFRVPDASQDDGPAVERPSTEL
Protocol: (§1) Recombinant baculoviruses were isolated by transfecting 4 μg of baculovirus transfer vector DNA into SF9 insect cells (2×10^8) along with 200 ng of linearized baculovirus plasmid DNA by the calcium phosphate method. See M. D. Summers and G. E. Smith, A Manual of Methods for Baculovirus Vectors and Insect Cell Culture Procedures, Texas Agric. Exp. Station Bull. […] Recombinant viruses were purified by three rounds of plaque purification and high titer (10^7-10^8 pfu/mL) stocks of virus were prepared. For large scale production, SF9 insect cells were infected in 10 liter fermentors (0.5×10^6/mL) with the recombinant baculovirus stock such that the multiplicity of infection was 0.1. After 72 hours the cells were centrifuged and the cell pellet homogenized in Tris/Sucrose (50 mM: 25%, pH 8.0) containing 1% 3-[(3-cholamidopropyl)dimethylammonio]-1-propanesulfonate (CHAPS). The homogenate was centrifuged at 10,000×G for 30 minutes, and the resultant supernatant was stored at −80° C. before being assayed for COX activity.
COX activity was assayed as PGE2 formed/μg protein/time using an ELISA to detect the prostaglandin released. CHAPS-solubilized insect cell membranes containing the appropriate COX enzyme were incubated in a potassium phosphate buffer (50 mM, pH 8.0) containing epinephrine, phenol, and heme with the addition of arachidonic acid (10 μM). Compounds were pre-incubated with the enzyme for 10-20 minutes prior to the addition of arachidonic acid. […] The PGE2 formed was measured by standard ELISA technology (Cayman Chemical).

[2] = molecular target: T2, Human COX-2 (Homo sapiens, UniProt P35354); assay: Fast assay for COX-1 and COX-2 activity (PGE2 ELISA), COX-2; type: biochemical; conditions: Table II, pre-incubated 10 minutes at 25° C., arachidonic acid 10 μM, stopped after two minutes, pH 7.5
T2 construct: A 2.0 kb fragment containing the coding region of either human or murine COX-1 or human or murine COX-2; made in house; host or cells: SF9 insect cells (baculovirus, transfer vector pVL1393)
T2 sequence (P35354 18-604): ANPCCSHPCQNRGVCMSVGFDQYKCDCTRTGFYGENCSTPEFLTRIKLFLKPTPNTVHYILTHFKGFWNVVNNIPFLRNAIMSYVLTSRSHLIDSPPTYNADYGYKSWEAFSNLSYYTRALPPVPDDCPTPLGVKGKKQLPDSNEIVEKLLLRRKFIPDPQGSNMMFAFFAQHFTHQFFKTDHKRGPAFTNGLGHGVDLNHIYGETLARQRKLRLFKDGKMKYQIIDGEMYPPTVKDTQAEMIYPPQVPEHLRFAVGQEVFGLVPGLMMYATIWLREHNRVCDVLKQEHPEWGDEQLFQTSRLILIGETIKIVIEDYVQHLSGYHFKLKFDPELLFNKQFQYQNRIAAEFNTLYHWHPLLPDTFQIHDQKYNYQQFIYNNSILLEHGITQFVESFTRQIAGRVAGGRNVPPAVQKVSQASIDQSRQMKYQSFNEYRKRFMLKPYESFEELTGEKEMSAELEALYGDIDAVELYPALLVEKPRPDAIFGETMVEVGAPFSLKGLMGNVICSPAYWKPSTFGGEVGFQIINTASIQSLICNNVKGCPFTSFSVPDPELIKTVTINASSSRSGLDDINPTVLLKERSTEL
Protocol: (§2) Recombinant COX-1 and COX-2 were prepared as described by Gierse et al, [[…]., 305, 479-84 (1995)]. A 2.0 kb fragment containing the coding region of either human or murine COX-1 or human or murine COX-2 was cloned into a BamH1 site of the baculovirus transfer vector pVL1393 (Invitrogen) to generate the baculovirus transfer vectors for COX-1 and COX-2 in a manner similar to the method of D. R. O'Reilly et al (Baculovirus Expression Vectors: A Laboratory Manual (1992)). Recombinant baculoviruses were isolated by transfecting 4 μg of baculovirus transfer vector DNA into SF9 insect cells (2×10^8) along with 200 ng of linearized baculovirus plasmid DNA by the calcium phosphate method. See M. D. Summers and G. E. Smith, A Manual of Methods for Baculovirus Vectors and Insect Cell Culture Procedures, Texas Agric. Exp. Station Bull. 1555 (1987). Recombinant viruses were purified by three rounds of plaque purification and high titer (10^7-10^8 pfu/mL) stocks of virus were prepared. For large scale production, SF9 insect cells were infected in 10 liter fermentors (0.5×10^6/mL) with the recombinant baculovirus stock such that the multiplicity of infection was 0.1. After 72 hours the cells were centrifuged and the cell pellet homogenized in Tris/Sucrose (50 mM: 25%, pH 8.0) containing 1% 3-[(3-cholamidopropyl)dimethylammonio]-1-propanesulfonate (CHAPS). The homogenate was centrifuged at 10,000×G for 30 minutes, and the resultant supernatant was stored at −80° C. before being assayed for COX activity.
(§3) COX activity was assayed as PGE2 formed/μg protein/time using an ELISA to detect the prostaglandin released. CHAPS-solubilized insect cell membranes containing the appropriate COX enzyme were incubated in a potassium phosphate buffer (0.05 M Potassium phosphate, pH 7.5, 2 μM phenol, 1 μM heme, 300 μM epinephrine) with the addition of 20 μl of 100 μM arachidonic acid (10 μM). Compounds were pre-incubated with the enzyme for 10 minutes at 25° C. prior to the addition of arachidonic acid. Any reaction between the arachidonic acid and the enzyme was stopped after two minutes at 37° C./room temperature by transferring 40 μl of reaction mix into 160 μl ELISA buffer and 25 μM indomethacin. The PGE2 formed was measured by standard ELISA technology (Cayman Chemical).

[3] = molecular target: T2, Human COX-2; assay: Assay for COX-1 and COX-2 activity (PGE2 ELISA, recombinant enzyme), COX-2; type: biochemical; conditions: Table I; pre-incubated 10-20 minutes, arachidonic acid 10 μM, stopped after ten minutes, pH 8.0
Protocol: The COX-2 inhibition activity of the compounds of this invention illustrated in the Examples was determined by the following methods.
as §2
COX activity was assayed as PGE2 formed/μg protein/time using an ELISA to detect the prostaglandin released. CHAPS-solubilized insect cell membranes containing the appropriate COX enzyme were incubated in a potassium phosphate buffer (50 mM, pH 8.0) containing epinephrine, phenol, and heme with the addition of arachidonic acid (10 μM). Compounds were pre-incubated with the enzyme for 10-20 minutes prior to the addition of arachidonic acid. Any reaction between the arachidonic acid and the enzyme was stopped after ten minutes at 37° C./room temperature by transferring 40 μl of reaction mix into […] and 25 μM indomethacin. The PGE2 formed was measured by standard ELISA technology (Cayman Chemical).

[4] = molecular target: T1, Human COX-1; assay: Fast assay for COX-1 and COX-2 activity (PGE2 ELISA), COX-1; type: biochemical; conditions: Table II, pre-incubated 10 minutes at 25° C., arachidonic acid 10 μM, stopped after two minutes, pH 7.5
Protocol: as §1
as §3, with “Any reaction between the arachidonic acid and the enzyme was stopped after two minutes at 37° C./room temperature by transferring 40 μl of reaction mix into 160 μl ELISA buffer and 25 μM indomethacin.” left out

SMILES | melting point [°C] | IC50 [1] [nM] | IC50 [2] [nM] | IC50 [3] [nM] | IC50 [4] [nM]
Cc1ccc(-n2nc(C(F)F)cc2-c2ccc(S(C)(=O)=O)c(F)c2)cc1Cl (as salt: trifluoroacetate) [Example 20, 1-(3-Chloro-4-methylphenyl)-3-(difluoromethyl)-5-[3-fluoro-4-(methylsulfonyl)phenyl]-1H-pyrazole] | 146 to 147 |  |  |  | 
Cc1ccc(-n2nc(C(F)F)cc2-c2ccc(S(C)(=O)=O)c(F)c2)cc1Cl [Example 20, 1-(3-Chloro-4-methylphenyl)-3-(difluoromethyl)-5-[3-fluoro-4-(methylsulfonyl)phenyl]-1H-pyrazole] |  | > 100000 | 53 | 36 | > 100000
COc1ccc(-c2cc(C(F)F)nn2-c2ccc(S(N)(=O)=O)c(F)c2)cc1F [Example 10, 4-[3-(Difluoromethyl)-5-(3-fluoro-4-methoxyphenyl)-1H-pyrazol-1-yl]-2-fluorobenzenesulfonamide] | 167 to 169 | > 100000 |  | 110 | 
CS(=O)(=O)c1ccc(-c2cc(C(F)F)nn2-c2ccc(F)cc2)cc1F (as salt: trifluoroacetate) [Example 18, 3-(Difluoromethyl)-5-[3-fluoro-4-(methylsulfonyl)phenyl]-1-(4-fluorophenyl)-1H-pyrazole] | 201 to 202 |  |  |  | 
Cc1onc(-c2ccccc2)c1-c1ccc(S(N)(=O)=O)c(F)c1 [Example 23] | 180 to 182 |  |  |  | 
CS(=O)(=O)c1ccc(-c2cc(C(F)F)nn2-c2ccc(F)cc2)cc1F [Example 18, 3-(Difluoromethyl)-5-[3-fluoro-4-(methylsulfonyl)phenyl]-1-(4-fluorophenyl)-1H-pyrazole] |  | > 100000 | 310 | 320 | > 100000
Cc1ccc(-c2cc(C(F)(F)F)nn2-c2ccc(S(N)(=O)=O)c(F)c2)cc1 (as salt: trifluoroacetate) [Example 4, 4-[5-(4-Methylphenyl)-3-(trifluoromethyl)-1H-pyrazol-1-yl]-2-fluorobenzenesulfonamide] | 126 to 128 |  |  |  | 
CS(=O)(=O)c1ccc(-c2cc(C(F)F)nn2-c2cccc(C(F)(F)F)c2)cc1F (as salt: trifluoroacetate) [Example 21] | 110 to 111 |  |  |  | 
NS(=O)(=O)c1ccc(-n2nc(C(F)(F)F)cc2-c2ccc(F)cc2)cc1F [Example 8, 2-Fluoro-4-[5-(4-fluorophenyl)-3-(trifluoromethyl)-1H-pyrazol-1-yl]benzenesulfonamide] |  | 56800 | 21 | 20 | 41500
NS(=O)(=O)c1ccc(-n2nc(C(F)(F)F)cc2-c2ccc(Cl)cc2)cc1F (as salt: trifluoroacetate) [Example 5, 4-[5-(4-Chlorophenyl)-3-trifluoromethyl-1H-pyrazol-1-yl]-2-fluorobenzenesulfonamide] | 140 to 141 |  |  |  | 
COc1ccccc1-c1cc(C(F)(F)F)nn1-c1ccc(S(N)(=O)=O)c(F)c1 [Example 9, 2-Fluoro-4-[5-(2-methoxyphenyl)-3-(trifluoromethyl)-1H-pyrazol-1-yl]benzenesulfonamide] |  | > 100000 | 180 | 250 | > 100000
COc1ccc(-c2cc(C(F)(F)F)nn2-c2ccc(S(N)(=O)=O)c(F)c2)cc1F [Example 6, 4-[5-(3-Fluoro-4-methoxy)-3-trifluoromethyl-1H-pyrazol-1-yl]-2-fluorobenzenesulfonamide] |  | 45600 | 18 | 25 | > 100000
CS(=O)(=O)c1ccc(-c2cc(C(F)F)nn2C2CCCCC2)cc1F (as salt: trifluoroacetate) [Example 19, 1-Cyclohexyl-3-(difluoromethyl)-5-[3-fluoro-4-(methylsulfonyl)phenyl]-1H-pyrazole] | 138 to 139 |  |  |  | 
COc1ccc(-c2cc(C(F)(F)F)nn2-c2ccc(S(N)(=O)=O)c(F)c2)cc1F (as salt: trifluoroacetate) [Example 6, 4-[5-(3-Fluoro-4-methoxy)-3-trifluoromethyl-1H-pyrazol-1-yl]-2-fluorobenzenesulfonamide] | 124 to 126 |  |  |  | 
COc1ccccc1-c1cc(C(F)(F)F)nn1-c1ccc(S(N)(=O)=O)c(F)c1 (as salt: trifluoroacetate) [Example 9, 2-Fluoro-4-[5-(2-methoxyphenyl)-3-(trifluoromethyl)-1H-pyrazol-1-yl]benzenesulfonamide] | 159 to 160 |  |  |  | 
COc1ccc(-c2cc(C(F)(F)F)nn2-c2ccc(S(N)(=O)=O)c(F)c2)cc1 [Example 7, 2-Fluoro-4-[5-(4-methoxyphenyl)-3-(trifluoromethyl)-1H-pyrazol-1-yl]benzenesulfonamide] |  |  | 4 | 5 | 
NS(=O)(=O)c1ccc(-n2nc(C(F)(F)F)cc2-c2ccc(F)cc2)cc1F (as salt: trifluoroacetate) [Example 8, 2-Fluoro-4-[5-(4-fluorophenyl)-3-(trifluoromethyl)-1H-pyrazol-1-yl]benzenesulfonamide] | 127 to 130 |  |  |  | 
